How the values were obtained:
[1] = molecular target: T1, cystathionine-γ-lyase (CSE) (Homo sapiens, UniProt P32929); assay: methylene blue H2S assay, secondary plot of Lineweaver-Burk slopes; type: biochemical
T1 construct: gene CTH; N-terminal GST fusion (pGEX-4T3), expressed in E. coli BL21(DE3) Codon Plus; eluted with reduced GSH, no tag cleavage described

[2] = molecular target: T1, cystathionine-γ-lyase (CSE); assay: methylene blue H2S assay, concentration-response; type: biochemical
[3] = molecular target: T2, cystathionine-ß-synthase (CBS) (Homo sapiens, UniProt P35520); assay: absorbance spectroscopy; type: binding; details: bound at Lys119
T2 construct: N-terminal GST fusion (pGEX-Kg), expressed in E. coli BL21(DE3) Codon Plus; eluted with reduced GSH, no tag cleavage described; homotetramer
T2 sequence (P35520 1-551): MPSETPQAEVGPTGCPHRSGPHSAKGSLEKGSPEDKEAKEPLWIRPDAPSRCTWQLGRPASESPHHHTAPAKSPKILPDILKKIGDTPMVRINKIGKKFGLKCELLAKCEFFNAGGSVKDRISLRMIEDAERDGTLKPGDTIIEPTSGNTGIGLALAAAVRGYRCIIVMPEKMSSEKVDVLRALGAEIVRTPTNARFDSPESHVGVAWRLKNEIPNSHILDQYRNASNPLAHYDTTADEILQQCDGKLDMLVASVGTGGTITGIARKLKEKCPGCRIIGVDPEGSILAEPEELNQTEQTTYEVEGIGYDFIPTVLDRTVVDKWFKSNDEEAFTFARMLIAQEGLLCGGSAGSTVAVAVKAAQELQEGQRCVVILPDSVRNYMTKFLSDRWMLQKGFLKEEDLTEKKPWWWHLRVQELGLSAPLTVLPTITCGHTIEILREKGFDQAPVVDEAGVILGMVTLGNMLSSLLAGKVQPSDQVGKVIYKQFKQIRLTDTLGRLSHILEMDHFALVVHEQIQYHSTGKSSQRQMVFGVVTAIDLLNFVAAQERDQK

[4] = molecular target: T1, cystathionine-γ-lyase (CSE); assay: absorbance spectroscopy; type: binding; details: covalently attached to Lys212

T1 sequence (P32929 whole entry, the tested form may be a part): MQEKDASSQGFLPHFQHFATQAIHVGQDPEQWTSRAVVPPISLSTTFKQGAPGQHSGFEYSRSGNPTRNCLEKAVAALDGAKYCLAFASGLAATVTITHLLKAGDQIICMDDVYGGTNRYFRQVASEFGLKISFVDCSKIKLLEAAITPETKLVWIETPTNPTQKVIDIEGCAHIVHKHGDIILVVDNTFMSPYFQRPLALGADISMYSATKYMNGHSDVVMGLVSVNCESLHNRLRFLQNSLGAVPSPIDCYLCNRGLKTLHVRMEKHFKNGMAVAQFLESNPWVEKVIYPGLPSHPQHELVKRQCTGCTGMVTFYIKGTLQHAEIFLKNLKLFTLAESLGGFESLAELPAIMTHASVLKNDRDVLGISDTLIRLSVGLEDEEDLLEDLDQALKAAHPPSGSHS

Ki [1] [µM]	IC50 [2] [µM]	SMILES	absorbance spectroscopy [3]	absorbance spectroscopy [4]
13	6.3 ± 1	C#CCNC(=O)[C@@H]1CSC(=O)N1 [2a, compound 2a]	–	–
–	42.2 ± 1.1	C#CCC(N)C(=O)O (centres unmarked) [PAG]	–	–
–	–	Cc1ncc(COP(=O)(O)O)c(C=O)c1O [PLP]	enzymes are correctly folded and bind the respective prosthetic groups	enzymes are correctly folded and bind the respective prosthetic groups

Source: PMC5052628, “Fragment-based de novo design of a cystathionine γ-lyase selective inhibitor blocking hydrogen sulfide production” (Scientific Reports, 2016)
